The results in this text go back to PubChem BioAssay AID1996.

SMILES strings stand for the structures. Converted amounts (≈) assume the structure as drawn.

The conditions of the data set: buffer; pH 7.4; 200.0 µM.
A word on the solubility (kinetic): it is solubility judged after dilution from a stock solution rather than from solid. `O=C(O)CSc1cccnc1Sc1ccc(Cl)cc1` returned a kinetic solubility of more than 46.8 µg/mL.
Under `CC(=O)OC(C(=O)Nc1nccs1)c1ccccc1` (centres undefined) stands more than 41.4 µg/mL.
The compound `CC(C)OC(=O)/C(C#N)=C\c1cccnc1` had a kinetic solubility of 28.2 µg/mL (≈ 130 µM).
Turning to `COc1ccc(CNC(=O)COC(=O)c2ccc(S(=O)(=O)N3CCCCC3)cc2)cc1`, the solubility (kinetic) turned out to be 2.1 µg/mL (≈ 4.7 µM).
Under `Cc1cccc(C2N=C(N)Nc3nc4ccccc4n32)c1` (centres undefined) stands 34.3 µg/mL (≈ 124 µM); under `NC(=O)CN1C(=O)NC2(CCCc3sccc32)C1=O` (centres undefined), more than 41.9 µg/mL; under `CC12CCC(C/C1=N/O)C2(C)CBr` (centres undefined), more than 36.9 µg/mL.
Take `C=CCn1c(CCC)nc2ccccc21`: the kinetic solubility is more than 30 µg/mL.
Compound `O=C(O)c1cccc(S(=O)(=O)Nc2ccc(Oc3ccccc3)cc2)c1` showed a solubility (kinetic) of more than 55.4 µg/mL.
Turning to `CCc1ccc2oc(C(=O)Nc3nonc3CC)c(C)c2c1`, the kinetic solubility was less than 0.2 µg/mL.
As to `Cc1ccc(S(=O)(=O)N2CCCCC2)cc1C(=O)N1C(C)CCCC1C` (centres undefined), the kinetic solubility is more than 56.8 µg/mL.
`O=C(CCN=C1NS(=O)(=O)c2ccccc21)NCc1ccccc1F` gave a solubility (kinetic) of more than 54.2 µg/mL.
With `COc1cccc(-c2csc(NC(=O)Nc3ccccc3)n2)c1`, the kinetic solubility is less than 0.2 µg/mL.
Under `N#Cc1c(-c2ccncc2)cc(-c2ccc(F)cc2)nc1N` stands 0.5 µg/mL (≈ 1.72 µM).
As to `CC1CCCC(NC(=O)CCn2c(=S)oc3ccccc32)C1C` (centres undefined), the solubility (kinetic) turned out to be 2 µg/mL (≈ 6.02 µM).
With `Cc1ccc(NC(=O)CN2CCN(Cc3ccccc3)CC2)cc1Cl` the figure was 7.7 µg/mL (≈ 21.5 µM); with `Cc1ccc(C(=O)NC(C)c2ccc3c(c2)OCO3)s1` (centres undefined), more than 43.4 µg/mL; with `COc1ccc(CCNC(=O)c2ccc(=O)[nH]c2)cc1OC`, more than 45.3 µg/mL.
Turning to `Fc1ccccc1NC(=S)NCCc1cccc(Cl)c1`, the kinetic solubility was found to be 36.7 µg/mL (≈ 119 µM).
With `CCn1c(Oc2ccccc2)nc2c1c(=O)n(C)c(=O)n2C` the figure was 37.8 µg/mL (≈ 126 µM).
Under `O=C(c1cc([N+](=O)[O-])ccc1Cl)N1CCc2ccccc21` stands 1.6 µg/mL (≈ 5.29 µM); under `CCOC(=O)c1[nH]c(C)c(CC(C)C)c1C`, 24 µg/mL (≈ 107 µM).
Under `CCN1CCCC1CNC(=O)c1cc2cc(OC)c(OC)cc2[nH]1` (centres undefined) stands more than 49.7 µg/mL.
For the compound `Cc1cc(=O)oc(C)c1C(=O)Nc1ccc(F)cc1`, the solubility (kinetic) is more than 39.2 µg/mL.
With `CCC(C(=O)Nc1ccon1)c1ccccc1` (centres undefined) the figure was more than 34.5 µg/mL.
The compound `O=C(OCCN=C1NS(=O)(=O)c2ccccc21)c1cccc([N+](=O)[O-])c1` showed a solubility (kinetic) of 3 µg/mL (≈ 7.99 µM).
Compound `CN1CCN(c2ccc(C(F)(F)F)cc2N)CC1` showed a solubility (kinetic) of more than 38.9 µg/mL.
With `Cc1cc(C(=O)N2CCOCC2)ccc1[N+](=O)[O-]` the figure was more than 37.5 µg/mL; with `N#Cc1cccc(S(=O)(=O)NCCOc2ccccc2F)c1`, more than 48.1 µg/mL.
With `Cc1ccc(NC(=O)NCCCN2CCCC2=O)cc1Cl` the figure was more than 46.5 µg/mL; with `O=S(=O)(c1cccs1)N1CCN(c2ccccc2F)CC1`, 15.6 µg/mL (≈ 47.8 µM).
With `CCc1ccc2c(CN3CCC(C(=O)OC)CC3)cc(=O)oc2c1` the figure was more than 49.4 µg/mL; with `Cc1ccc(S(=O)(=O)N2CCN(C(C)CC(=O)O)CC2)cc1` (centres undefined), 32.9 µg/mL (≈ 101 µM).
In the case of `Cc1ccc(C)c(NC(=O)CN(C)C(C)C(=O)N2CC(C)CC(C)C2)c1` (centres undefined), the kinetic solubility was 47.9 µg/mL (≈ 133 µM). The solubility kinetic values of the last two compounds are within 1.5-fold of each other.
Under `COC(=O)CN(c1nc(C)c(Br)c(OC)n1)S(=O)(=O)c1ccccc1` stands 14.4 µg/mL (≈ 33.5 µM); under `Cn1cccc1C(=O)NCC(c1ccco1)N1CCCCC1` (centres undefined), more than 45.2 µg/mL; under `O=c1[nH]c2ccc(NC(=S)Nc3ccc(F)cc3)cc2[nH]1`, more than 45.3 µg/mL.
For the compound `Cc1cccc(NC(=O)C2CCN(C(=O)c3ccco3)CC2)c1C`, the kinetic solubility is more than 49 µg/mL.
Under `COc1ccc(-c2cc(C(=O)NC3CC3)c3ccccc3n2)cc1` stands 1.6 µg/mL (≈ 5.03 µM); under `Cc1cc(C)c(C)c(S(=O)(=O)NCc2ccc(C(=O)N3CCN(C)CC3)cc2)c1C`, more than 64.4 µg/mL.
Under `Cc1ccc(C)c(C(=O)Nc2nc3ccccc3[nH]2)c1` stands 0.4 µg/mL (≈ 1.51 µM).
`O=[N+]([O-])c1cccc(-c2noc(-c3ccco3)n2)c1` gave a solubility (kinetic) of 1.7 µg/mL (≈ 6.61 µM).
`Cc1ccc(CNc2ncc(-c3ccccc3)n2C)o1.O=C(O)C(=O)O` had a kinetic solubility of more than 53.6 µg/mL.
Under `CCOc1c(C)cc(S(=O)(=O)NCc2cccnc2)c(C)c1C` stands 45.2 µg/mL (≈ 135 µM); under `O=C1CC(Cc2ccccc2)C(=O)N1c1ccccn1` (centres undefined), more than 39.9 µg/mL; under `Cl.NC(Cc1ccccc1)C(=O)N1CCCCC1` (centres undefined), more than 40.3 µg/mL.
Compound `CC(C)c1ccc(NC(=S)N2CCCC2)cc1` came in with a kinetic solubility of more than 37.3 µg/mL.
In turn, `Cc1noc(C)c1COc1ccc(C(=O)Nc2ccccn2)cc1` came in with a kinetic solubility of 7.6 µg/mL (≈ 23.5 µM).
Under `COc1cscc1C(N)=O` stands 19.4 µg/mL (≈ 123 µM).
In turn, `COc1ccc(C)cc1NC(=O)NCc1ccco1` registered a kinetic solubility of 11 µg/mL (≈ 42.3 µM). Against the preceding compound, the solubility kinetic is about 1.8-fold lower.
With `O=C(COc1ccccc1)N1CCN=C1SCc1ccc(F)cc1`, the solubility (kinetic) was found to be 6.4 µg/mL (≈ 18.6 µM).
Consider `O=C(CCl)Nc1ncc(S(=O)(=O)c2ccc([N+](=O)[O-])cc2)s1`, for which the kinetic solubility is more than 54.3 µg/mL.
Under `O=c1ccc(S(=O)(=O)N2CCCC2)c[nH]1` stands more than 34.2 µg/mL; under `Cc1c(C(=O)OCC(=O)N(C)Cc2ccccc2)oc2ccccc12`, 23.3 µg/mL (≈ 69.1 µM).
Take `Cn1c(SCC(=O)N2CCCCCC2)nnc1-c1ccco1`: the kinetic solubility was more than 48.1 µg/mL.
`Cc1ccc2c(c1)c(=O)c1c3n2CCN(CC#N)C3CC1` (centres undefined) had a kinetic solubility of 37.7 µg/mL (≈ 135 µM).
Under `CN1C(=O)N(C)c2ccc(Br)c3cccc1c23` stands less than 0.3 µg/mL.
As for `O=C(NC(=S)NCc1ccco1)c1ccc([N+](=O)[O-])cc1`, the solubility (kinetic) was determined as 4.6 µg/mL (≈ 15.1 µM).
Under `O=C(Nc1nc(-c2ccccc2)ns1)c1ccncc1` stands 2.4 µg/mL (≈ 8.5 µM).
With `Cc1cccc(C(=O)NC(C)c2ccc(-n3ccnc3)cc2)c1C` (centres undefined), the solubility (kinetic) worked out at 43 µg/mL (≈ 135 µM).
As to `CCc1cc(=O)oc2cc(OCC(=O)N3CCC[C@H]3C(=O)O)ccc12`, the solubility (kinetic) was more than 51.8 µg/mL.
For the compound `Cc1ccc(-n2c(C(C)C)nc3oc4ccccc4c(=O)c3c2=O)cc1`, the solubility (kinetic) is 14.7 µg/mL (≈ 42.4 µM).
For the compound `O=C(NS(=O)(=O)c1ccc(Cl)cc1)c1ccccc1`, the kinetic solubility stood at 26.7 µg/mL (≈ 90.3 µM).
On to `O=C(COC(=O)c1cccnc1Cl)NC1CCCc2ccccc21` (centres undefined), for which the solubility (kinetic) was more than 51.7 µg/mL.
With `Cc1cccc(-c2nc(Nc3cccc(O)c3)c3ccccc3n2)c1` the figure was 1 µg/mL (≈ 3.05 µM); with `Cc1nc(C(F)(F)F)ccc1C(=O)Nc1ccc2ccccc2n1`, 3.3 µg/mL (≈ 9.96 µM).
`Cc1cc(OCCCn2ccnc2)ccc1[N+](=O)[O-].O=C(O)C(=O)O` had a kinetic solubility of 36.8 µg/mL.
Consider `CCOC(=O)CCCc1ccc(/C(C)=N/NC(N)=S)cc1`, for which the kinetic solubility is more than 46.1 µg/mL.
`Cc1ccc(C)c(NC(=O)CSc2c(C)n[nH]c2C)c1` had a kinetic solubility of more than 43.4 µg/mL.
Under `Cc1cnc(C(=O)Nc2ccc(OC(F)(F)F)cc2)cn1` stands 2.6 µg/mL (≈ 8.75 µM).
Under `Cl.O=S(=O)(CCC1CCCCN1)c1ccccc1` (centres undefined) stands more than 43.5 µg/mL; under `OCCNCC12CC3CC(CC(C3)C1)C2`, 26.4 µg/mL (≈ 126 µM).
With `CCn1c(SCC(=O)NC2CCCC2)nnc1-c1cccnc1` the figure was more than 49.7 µg/mL.
As for `CC(C)CC(C)NC(=O)c1ccc(C(F)(F)F)cc1` (centres undefined), the kinetic solubility was found to be 4.9 µg/mL (≈ 17.9 µM).
Compound `O=C(NN1C(=O)NC2(CCCCC2)C1=O)c1cccs1` returned a solubility (kinetic) of more than 44 µg/mL.
`Cc1ccc(OCC(O)CN2CCOCC2)c(C)c1.Cl` (centres undefined): the kinetic solubility was more than 45.3 µg/mL.
With `COc1ccc(CC(=O)OCC(=O)c2ccc[nH]2)cc1` the figure was more than 41 µg/mL; with `Cc1nc2cc(NC(=O)Nc3cccc([N+](=O)[O-])c3)ccc2n1C`, 0.6 µg/mL (≈ 1.84 µM).
Compound `CCC1(c2ccc(Cl)cc2)NC(=O)N(CC(=O)N2CCN(C(=O)c3ccco3)CC2)C1=O` (centres undefined) yielded a solubility (kinetic) of more than 68.8 µg/mL.
In turn, `Cc1onc(-c2ccccc2Cl)c1C(=O)Nc1ccccc1O` returned a solubility (kinetic) of 17.2 µg/mL (≈ 52.3 µM).
Take `CN(C)/C=C/C(=O)c1ccc([N+](=O)[O-])c(CS(=O)(=O)c2ccccc2)c1`: the solubility (kinetic) was more than 56.2 µg/mL.
With `Cc1cc(C(=O)NC2CC2)c2ccccc2n1` the figure was 29.5 µg/mL (≈ 130 µM); with `COc1cccc(OC)c1C(=O)Nc1ccccc1Sc1ccccc1`, 3.6 µg/mL (≈ 9.85 µM).
Under `COCCCNC(=O)Cc1ccc(-n2c(C)nc3cccnc32)cc1` stands more than 50.8 µg/mL; under `Cc1ccc(C(C)NC(=S)NCc2ccc(F)cc2)cc1C` (centres undefined), 6.2 µg/mL (≈ 19.6 µM); under `CC(=O)Nc1cccc(C(=O)Nc2nc(C)cs2)c1`, 37.4 µg/mL (≈ 136 µM).
With `COCCNS(=O)(=O)c1cc(OC)c(C)cc1C` the figure was more than 41 µg/mL; with `Cl.NC(=S)NC(c1ccccc1)c1ccncc1` (centres undefined), 39.5 µg/mL; with `Cc1cccc(OCc2nc(-c3ccc(Br)o3)no2)c1`, 1 µg/mL (≈ 2.98 µM).
`CC(=O)Oc1ccc(C(=O)Nc2cccc(C(=O)NC(C)(C)C)c2)cc1` yielded a solubility (kinetic) of 45 µg/mL (≈ 127 µM). This solubility kinetic is about 45-fold higher than that of the compound before.
`CN(C)c1ccc(Nc2nc(N)c3ccccc3n2)cc1.Cl` returned a solubility (kinetic) of more than 47.4 µg/mL.
On to `O=C(CN1C(=O)C2C3CCC(C3)C2C1=O)OCC(=O)c1ccc(Br)cc1` (centres undefined), for which the solubility (kinetic) was more than 63 µg/mL.
Under `Cc1nn(C)c(C)c1NS(=O)(=O)c1ccccc1Cl` stands more than 45 µg/mL; under `COc1cc(NC(=O)CCN2CCOCC2)cc(OC)c1`, more than 44.2 µg/mL; under `CN1CCN(c2c(F)cc([N+](=O)[O-])c(N)c2Br)CC1`, more than 50 µg/mL.
With `NC(C(=O)O)C(c1ccccc1)C(F)F` (centres undefined) the figure was 30 µg/mL (≈ 139 µM); with `N#C/C(=C\c1ccccc1)C(=O)N1CCN(c2ccccc2F)CC1`, 20.4 µg/mL (≈ 60.8 µM).
Under `O=C(NCc1ccc(F)cc1)c1cccnc1` stands more than 34.5 µg/mL; under `O=C(COC(=O)CCC(=O)c1ccc(F)cc1)NCc1ccco1`, more than 50 µg/mL.
The compound `N#CCCN(Cc1ccccc1)C(=O)c1cccs1` had a solubility (kinetic) of more than 40.6 µg/mL.
Under `Cc1nc(/C(N)=N/OC(=O)c2ccccc2Cl)c(C(F)(F)F)o1` stands 35.8 µg/mL (≈ 103 µM); under `Cc1ccccc1C(=O)N1CCC(C(=O)NC2CCCCCC2)CC1`, 48.6 µg/mL (≈ 142 µM); under `COc1ccc2c(c1)-c1nc(/N=C/c3ccc(O)cc3)sc1CC2`, 34 µg/mL (≈ 101 µM).
In the case of `CCCCCCN1C=CC=C/C1=C\C=C(C#N)C#N`, the solubility (kinetic) was 3.9 µg/mL (≈ 15.4 µM).
